Assay results taken from patent US8278311B2, “Substituted pyrimidine derivatives” (Abbott Laboratories, priority 2008, dated 2012).

Columns and labels:
[1] = target: T1, histamine H4 receptor (Homo sapiens, UniProt Q9H3N8); test: in vitro assay of histamine H4 activity using FLIPR-Ca+2 flux; format: cell-based; conditions: HEK-293 cells stably expressing histamine H4 receptor and Gαqi5, Fluo-4; Kb for antagonists and inverse agonists, EC50 for partial agonists
T1 construct: expressed in transfected cells
From the text: There are many methods available to show the effectiveness of compounds as histamine H4 receptor ligands. Histamine H4 receptors from mammalian species have been cloned. Methods to clone, express, and assess the potency and functional activity of such cloned genes are well known to those skilled in the art of molecular biology. Examples of methods of cloning and expressing histamine H4 receptors, and of assessing the potency and functional activity are described in Nguyen, et al. Molecular Pharmacology (2001) vol. 59 pp. 427-433; Zhu, et al. Molecular Pharmacology (2001) vol. 59 pp. 434-441; Coge, et al., Biochemical and Biophysical Research Communications (2001) vol. 284, pp. 301-309; Liu, et al. Molecular Pharmacology (2001) vol. 59 pp. 420-426; Liu, et al. Journal of Pharmacology and Experimental Therapeutics (2001) v. 299, pp. 121-130; and Thurmond, et al. Journal of Pharmacology and Experimental Therapeutics (2004) v. 309, pp. 404-413. In the present case, to determine the potency and effectiveness of representative compounds of this invention as histamine-H4 receptor ligands (H4 receptor ligands), the following tests were conducted according to previously described methods (see Esbenshade, et al., Biochemical Pharmacology (2004), vol. 68, pp. 933-945, and in Krueger, et al., Journal of Pharmacology and Experimental Therapeutics (2005) v. 314, pp. 271-281): histamine H4 receptors were cloned and stably expressed in HEK-293 (human embryonic kidney) cells coexpressing a Gαqi5. Before testing, cells are loaded with a Ca+^2 sensitive fluorescent dye, in this case Fluo-4 (Invitrogen, Carlsbad, Calif.). In the case of partial agonist or agonist ligands, addition of compound to the cells leads to the increase in intracellular Ca^+2 which is detected by FLIPR (Fluorescence Imaging Plate Reader; Molecular Devices, Sunnyvale, Calif.) technology. In a similar manner, compounds that are antagonists or inverse agonists, block the increase in fluorescence induced by the full histamine H4 agonist histamine, and partial agonists reduce the amount of fluorescence induced by the full histamine H4 agonist histamine. The fluorescence intensities measured before addition of the test compound are subtracted from the fluorescence intensities at later time points. Peak response values determined at each concentration of ligand are expressed as a percentage of the response obtained with the full agonist histamine. Concentration versus response data are analyzed to obtain compound potency as Kb values for antagonists and inverse agonists and as EC50 values for partial agonists.

[2] = target: T1, histamine H4 receptor; test: 3H-histamine competition binding assay; conditions: membranes of HEK-293 cells transiently transfected with histamine H4 receptor; [3H]-histamine, 25° C., 1 hour; read-out: Binding assay Potency (Ki)
Method: The potency of compounds of the invention in displacing ^3H-histamine in competition binding assays is assessed by methods described in Esbenshade, et al., Biochemical Pharmacology (2004), vol. 68, pp. 933-945. In this assay, membranes were prepared from HEK-293 cells transiently transfected with the pClNeo expression vector harboring the histamine H4 receptor by homogenization of the cells on ice in TE buffer (50 mM Tris-HCl buffer, pH 7.4, containing 5 mM EDTA), 1 mM benzamidine, 2 μg/mL aprotinin, 1 μg/mL leupeptin, and 1 μg/mL pepstatin. The homogenate was centrifuged at 40,000 g for 20 minutes at 4° C. This step was repeated, and the resulting pellet was resuspended in TE buffer. Aliquots were frozen at −70° C. until needed. On the day of assay, membranes were thawed and diluted with TE buffer. Competition radioligand binding assays were performed with increasing concentrations of test compound in the presence of [^3H]-histamine incubated at 25° C. for 1 hour in a total volume of 0.5 mL of 50 mM Tris, 5 mM EDTA, pH 7.4. All binding reactions were terminated by filtration under vacuum onto polyethylenimine (0.3%) presoaked Unifilters (PerkinElmer Life Sciences) or Whatman GF/B filters (Whatman, Clifton, N.J.) followed by three brief washes with 4 mL of ice-cold TE buffer. Bound radiolabel was determined by liquid scintillation counting. For all of the radioligand competition binding assays, IC50 values and Hill slopes were determined by Hill transformation of the data and Ki values were determined by the Cheng-Prusoff equation. The following table of representative histamine H4 receptor ligands is provided, along with potency values: […]

[3] = system: carrageenan-induced thermal hyperalgesia; test: acute model of carrageenan-induced thermal hyperalgesia (hotbox assay); format: in vivo; conditions: assessed 30 minutes after dosing
Method: To assess the effectiveness of representative compounds of the invention against acute model inflammatory pain, animals were tested in an acute model of carrageenan-induced thermal hyperalgesia (see for example, Honore, et al. Behavioural Brain Research (2006) vol. 167 pp. 355-364; Porreca, et al. Journal of Pharmacology and Experimental Therapeutics (2006) vol. 318 pp. 195-205). Carrageenan was injected into the test paw of the animal, and after 90 minutes, the test drug was administered by intraperitoneal dosing; the effect on thermal hyperalgesia was assessed in a hotbox assay which was done 30 minutes after the intraperitoneal dosing of the test drug, and the MPE (maximal percent effect) reported by comparison to the control paw (not injected with carrageenan), according to 100 times the withdrawal latency of the carrageenan injected paw (in seconds) divided by the withdrawal latency of the control (not injected with carrageenan) paw. […] Representative compounds are active in this model, with preferred compounds of the invention active in the model at doses of about 100 micromoles/kg of body weight.

[4] = 100 micromole/kg injected intraperitoneally

T1 sequence (Q9H3N8 whole entry, species assumed): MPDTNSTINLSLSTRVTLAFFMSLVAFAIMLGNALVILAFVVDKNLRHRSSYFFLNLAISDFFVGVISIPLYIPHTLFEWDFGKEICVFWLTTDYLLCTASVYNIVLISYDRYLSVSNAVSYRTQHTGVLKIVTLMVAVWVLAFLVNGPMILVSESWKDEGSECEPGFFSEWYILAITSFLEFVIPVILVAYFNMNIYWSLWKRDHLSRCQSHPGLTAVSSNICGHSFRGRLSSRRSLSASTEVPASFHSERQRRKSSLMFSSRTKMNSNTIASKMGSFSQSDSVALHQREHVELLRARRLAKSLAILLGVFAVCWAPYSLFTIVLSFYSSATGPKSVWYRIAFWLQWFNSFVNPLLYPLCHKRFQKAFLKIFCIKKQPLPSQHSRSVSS

| SMILES | Potency [1] [nM] | Ki [2] [nM] | MPE (maximal percent effect) [3, 4] [%] | MPE (maximal percent effect) ([3]; 30 micromole/kg injected intraperitoneally) [%] |
| --- | --- | --- | --- | --- |
| Nc1nc2c(c(N3CCNCC3)n1)CCC1=C2[C@@H]2CCCC[C@@H]2O1 (single isomer, unassigned) [Example 3, (−)-(7aS*,11aS*)-4-piperazin-1-yl-5,6,7a,8,9,10,11,11a-octahydro[1]benzofuro[2,3-h]quinazolin-2-amine] | 5.9 | 16.6 | 47 |  |
| Nc1nc2c(c(N3CCNCC3)n1)CCC1=C2[C@H]2CCCC[C@H]2O1 (single isomer, unassigned) [Example 4, (+)-(7aR*,11aR*)-4-piperazin-1-yl-5,6,7a,8,9,10,11,11a-octahydro[1]benzofuro[2,3-h]quinazolin-2-amine] | 4.5 | 3 | 63 |  |
| Nc1nc2c(c(N3CCNCC3)n1)CCC1=C2C2CCCCC2O1 (centres unmarked) [Example 1, 4-piperazin-1-yl-5,6,7a,8,9,10,11,11a-octahydro[1]benzofuro[2,3-h]quinazolin-2-amine] | 4.7 | 5.8 | 68 | 48 |
| CN[C@@H]1CCN(c2nc(N)nc3c2CCCC2C4C=CC(CC4)C32)C1 (stereo partly drawn) [Example 25, 4-[(3R)-3-(methylamino)pyrrolidin-1-yl]-6,7,7a,8,11,11a-hexahydro-5H-8,11-ethanobenzo[6,7]cyclohepta[1,2-d]pyrimidin-2-amine] | 24.0 | 5.6 |  |  |
| CN[C@@H]1CCN(c2nc(N)nc3c2CCCC2C4CCC(CC4)C32)C1 (stereo partly drawn) [Example 28, 4-[(3R)-3-(methylamino)pyrrolidin-1-yl]-6,7,7a,8,9,10,11,11a-octahydro-5H-8,11-ethanobenzo[6,7]cyclohepta[1,2-d]pyrimidin-2-amine] | 21.9 | 5.5 |  |  |
